Data on 3 molecules can be found in patent publication US10918629B2, “Method for treating lymphedema” (The Curators of the University of Missouri, priority 2014, dated 2021).

Where “and” joins values, the source holds several entries; their conditions need not be identical. Identical values can stand only once. Entries after “also recorded” stand apart in the source; their conditions may differ.

The subject of experiment [1] is dysfunctional lymphatic vessels. Put plainly: KATP channel inhibitor / L-type calcium channel agonist on diseased mouse tissue sample. The following applies: single agent, FIG. 20. The method, then: Glibendamide was then applied to a disease mouse tissue sample. […] The combination of glibenclamide and BayK8644 was then evaluated in a diseased mouse tissue sample. […] BayK8644, along with BayR5417 and FPL64176, are exemplary L-type calcium channel agonists.

Experiment [2] shares this test system. As to the kind of experiment: Phenylephrine on dysfunctional mouse lymphatic vessel. The following applies: mouse diseased tissue sample, FIG. 18.
The next experiment relates to healthy lymphangion. As to the kind of experiment: Rescue of valve lock in isolated pressurized lymphangions under elevated pressure. The arrangement: species or system mouse. From the text: FIG. 1A and FIG. 1B depict single (FIG. 1A) and multiple (FIG. 1B) lymphangion preparations showing measurements of pressure, diameter and valve position. FIG. 1C and FIG. 1D depict 1-valve preparations used for valve closure (FIG. 1C) and back-leak (FIG. 1D) tests. Color coding applies to pressure, diameter & valve traces shown in all subsequent figures; blue=upstream. black=mid segment, red=downstream. Pin and Pout are controlled with a computer-based servo controller; PL is intraluminal pressure measured with a servo-null micropipette inserted through the wall; diameters are measured with computer-based edge detection^(15); valve positions are determined using densitometry windows as shown^(21,22,69,71).
Studies were made of single and multiple lymphangions from mice under hydrostatic conditions simulating those experienced in primary and secondary lymphedema. When a progressive rise in outflow pressure is imposed, simulating the pressure load on the vessel in a dependent extremity, the normal response of the vessel is a myogenic constriction to Pout elevation (arrow, described in detail in ref.^(71)) with continued pumping, such that internal pressure generation slightly exceeds Pout during systole of each contraction cycle (*); as a result the output valve opens briefly in systole, allowing partial ejection. […]

The next experiment has as its system mouse popliteal vessel. As to the kind of experiment: Contractile function of isolated lymphatic vessels with impaired contractility. The text has this:
FIG. 9A, FIG. 9B, FIG. 9C and FIG. 9D depict the effect of norepinephrine (NE) on vessels with impaired contractility. […] FIG. 9C depicts that NE enhanced contractions in 13/14 vessels with impaired contractions and (FIG. 9D) induced >3.5-fold increase in FREQ (contraction frequency) and 2-fold increase in AMP (contraction amplitude) in a subset 8 vessels that had control contractions.
Data has been obtained to support the contention that NE has the potential not only to relieve valve lock (FIG. 3C) but also to enhance pump function. […] It is presumed that NE works by enhancing inotropy under these conditions and that it may be particularly effective in vessels fatigued or in partial pump failure from chronic pressure overload.

The test system of experiment [3] is human mesenteric lymphatic vessels. Put plainly: Isolated pressurized human mesenteric lymphatic vessel segments, response to NE. The following applies: 33 nM NE. The method, then: Recently, 1-, 2- and 3-valve segments of human mesenteric lymphatic vessels obtained following bariatric surgery were studied and their responses to Pout and/or Pin elevation and NE were tested. These are the first such measurements in isolated pressurized human lymphatics. […] Like rat/mouse vessels, the valves are biased to be open in the absence of a pressure gradient (arrowhead). Valve gating curves or tests for valve lock were unable to be performed because the vessels were too large to be studied on the microscope used with the pressure controller. However, it was encouraging to find that every response tested was similar to those of rat/mouse vessels.

Setting [4] is: subset of 8 vessels that had control contractions.

For the molecule `COc1ccc(Cl)cc1C(=O)NCCc1ccc(S(=O)(=O)NC(=O)NC2CCCCC2)cc1` [glibenclamide], the “effect on contractions and pumping functions” value in experiment [1] is “improves/restores normal contractions and pumping functions”.

With `CNC[C@H](O)c1cccc(O)c1` [PE, phenylephrine], the “effect on contraction and pumping” value in experiment [2] was “restored contraction and pumping; also recorded: improves/restores normal contractions and pumping functions”.

In the case of `NC[C@H](O)c1ccc(O)c(O)c1` [NE, norepinephrine], the “relief of valve lock” value with healthy lymphangion (pressure remains elevated, dose that counteracts the loss of tone but does not fuse contractions) is “relieves valve lock; also recorded: reverses valve lock; also recorded: can be rescued”. The “working range of a lymphangion pumping against an output load” value with healthy lymphangion (prophylactic application, vessel not yet failed) is recorded as “can be extended”. Moreover, the “dose-dependent effect on frequency, tone and inotropy” value in the experiment on mouse popliteal vessel (10^−8 to 10^−7M, FIG. 9) is “increases in frequency, tone and inotropy”. Besides, the “effect on contractions and pumping of vessels with impaired contractility” value in the experiment on mouse popliteal vessel (fatigued or weakly contracting vessels) was “induce tone and spontaneous contractions; also recorded: induced robust contractions that persisted when pressure was elevated; also recorded: restores contraction and pumping; also recorded: induces spontaneous contractions; also recorded: consistent, large-amplitude contractions”. Further, the “likelihood of having spontaneous contractions” value in the experiment with mouse popliteal vessel (preliminary analysis, FIG. 9C) is listed as “doubles”. Also, in the experiment with mouse popliteal vessel (setting [4]), the “increase in AMP (contraction amplitude)” value was determined as 2 fold; the “increase in FREQ (contraction frequency)” value was 3.5 fold and > 3.5 fold. In addition, the “vessels with enhanced contractions” value in the experiment with mouse popliteal vessel (vessels with impaired contractions, knock-out mouse developing hindlimb edema) is on record as 13/14. Besides, in experiment [3], the effect on tone result was “increase in tone”, the “increase in AMP” value was roughly 50% and the “increase in FREQ” value is given as roughly 2 fold.
